Results on two compounds are retold here after US7060792B2, “Protection against ischemia and reperfusion injury” (University of Kentucky Research Foundation, priority 2000, dated 2006).

Square brackets hold non-standard residues; d marks the D form. Peptide text beside a SMILES is read from it.

A short description of the data set: Solubility in water or saline. Type of data set: physicochemical. From the text: One of the compounds is a heptapeptide having the sequence Tyr-D-Met-Phe-His-Leu-Met-Asp-NH2 SEQ ID NO:1, hereinafter referred to as deltorphin A. Another of the compounds is a thirteen amino acid sequence Tyr-D-Ala-Phe-Gly-Tyr-Pro-Ser-Gly-Glu-Ala-Lys-Lys-Ile SEQ ID NO:2. The peptides may be produced by a number of methods, such as using an automated peptide synthesizer, through recombinant molecular techniques, or isolated from a naturally occurring source, as is known to one skilled in the art. Deltorphin A SEQ ID NO:1 has a molecular weight of 955.1 daltons, and Dermorphin H SEQ ID NO:2 has a molecular weight of about 1430.64 daltons. […] The initial alkaline pH is adjusted to 7.4 with 1 N HCl.

For `CSCC[C@H](NC(=O)[C@H](CC(C)C)NC(=O)[C@H](Cc1cnc[nH]1)NC(=O)[C@H](Cc1ccccc1)NC(=O)[C@@H](CCSC)NC(=O)[C@@H](N)Cc1ccc(O)cc1)C(=O)N[C@@H](CC(=O)O)C(N)=O` [Deltorphin A, Tyr-D-Met-Phe-His-Leu-Met-Asp-NH2] (H-Y[dM]FHLMD-NH2), the solubility entry is given as “insoluble in water or saline”.

With `CC[C@H](C)[C@H](NC(=O)[C@H](CCCCN)NC(=O)[C@H](CCCCN)NC(=O)[C@H](C)NC(=O)[C@H](CCC(=O)O)NC(=O)CNC(=O)[C@H](CO)NC(=O)[C@@H]1CCCN1C(=O)[C@H](Cc1ccc(O)cc1)NC(=O)CNC(=O)[C@H](Cc1ccccc1)NC(=O)[C@@H](C)NC(=O)[C@@H](N)Cc1ccc(O)cc1)C(=O)O` [Dermorphin H, Tyr-D-Ala-Phe-Gly-Tyr-Pro-Ser-Gly-Glu-Ala-Lys-Lys-Ile] (H-Y[dA]FGYPSGEAKKI-OH; N-terminus and C-terminus assumed), the solubility result is “insoluble in water or saline”.
